This note sets out measurements from publication PMC9382030, “A mechanism for exocyst-mediated tethering via Arf6 and PIP5K1C-driven phosphoinositide conversion” (Current biology : CB, 2022).

Common to all, as to assay: membrane-coated bead recruitment, confocal fluorescence, single-site fit
Holding throughout (assay type): binding
What all share (conditions): apparent affinity in protein concentration; 5 mol% PI(4,5)P2, 85% POPC, 10% phosphatidylserine on silica beads; room temperature, 30 min; 20 mM HEPES, 150 mM NaCl; read-out: KD,relative

The target in one experiment is T1, exocyst holocomplex (Homo sapiens, UniProt Q9NV70+Q9UPT5).
T1 construct: gene EXOC1; Sf9 baculovirus; hetero-octamer; 6xHis-mNeonGreen-Exoc6 (tag kept), 6xHis-MBP on Exoc5 cut with HRV3C, other subunits untagged; with Exocyst complex component 2; Exocyst complex component 3; Exocyst complex component 4; Exocyst complex component 5; Exocyst complex component 6; Exocyst complex component 8

Experiment [1] has as its target T2, exocyst subcomplex-1 (Exoc1:2:3:4) (Homo sapiens, UniProt Q9NV70).
T2 construct: Sf9 baculovirus; heterotetramer; 6xHis-mNeonGreen-Exoc4 (tag kept), 6xHis-MBP on Exoc1 cut with HRV3C, Exoc2 and Exoc3 untagged; PH domain of Exoc1 is the known PI(4,5)P2 site; with Exocyst complex component 2; Exocyst complex component 3; Exocyst complex component 4

For experiment [2], the target named is T3, exocyst subcomplex-2 (Exoc5:6:7:8) (Homo sapiens, UniProt Q9UPT5).
T3 construct: gene EXOC7; Sf9 baculovirus; heterotetramer; with Exocyst complex component 5; Exocyst complex component 6; Exocyst complex component 8

Each structure is given as a SMILES string.

T2 sequence (Q9NV70 whole entry, the tested form may be a part): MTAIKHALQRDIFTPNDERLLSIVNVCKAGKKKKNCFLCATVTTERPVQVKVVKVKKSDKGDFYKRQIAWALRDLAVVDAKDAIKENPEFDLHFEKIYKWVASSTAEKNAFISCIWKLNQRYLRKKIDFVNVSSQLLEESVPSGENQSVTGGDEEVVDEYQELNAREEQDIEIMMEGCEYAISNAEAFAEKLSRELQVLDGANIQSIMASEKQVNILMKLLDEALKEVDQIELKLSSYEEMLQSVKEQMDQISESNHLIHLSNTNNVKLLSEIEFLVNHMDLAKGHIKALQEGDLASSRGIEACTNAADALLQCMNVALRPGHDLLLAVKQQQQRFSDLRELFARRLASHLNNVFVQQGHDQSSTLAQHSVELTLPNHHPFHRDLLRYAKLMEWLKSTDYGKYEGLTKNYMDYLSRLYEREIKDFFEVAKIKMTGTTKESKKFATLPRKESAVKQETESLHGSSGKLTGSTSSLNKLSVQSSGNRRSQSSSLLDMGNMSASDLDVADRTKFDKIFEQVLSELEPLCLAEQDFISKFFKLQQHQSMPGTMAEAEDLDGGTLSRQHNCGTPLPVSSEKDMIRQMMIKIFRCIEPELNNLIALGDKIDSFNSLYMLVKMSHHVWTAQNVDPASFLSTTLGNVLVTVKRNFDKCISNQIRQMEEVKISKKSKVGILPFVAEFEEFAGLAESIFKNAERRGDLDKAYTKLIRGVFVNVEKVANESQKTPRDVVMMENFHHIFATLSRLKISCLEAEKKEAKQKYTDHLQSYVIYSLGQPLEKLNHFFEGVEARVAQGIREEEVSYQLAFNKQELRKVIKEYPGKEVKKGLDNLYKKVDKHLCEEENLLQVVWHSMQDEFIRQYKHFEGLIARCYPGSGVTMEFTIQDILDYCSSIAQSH
T2 sequence (Q96KP1 whole entry partner, the tested form may be a part): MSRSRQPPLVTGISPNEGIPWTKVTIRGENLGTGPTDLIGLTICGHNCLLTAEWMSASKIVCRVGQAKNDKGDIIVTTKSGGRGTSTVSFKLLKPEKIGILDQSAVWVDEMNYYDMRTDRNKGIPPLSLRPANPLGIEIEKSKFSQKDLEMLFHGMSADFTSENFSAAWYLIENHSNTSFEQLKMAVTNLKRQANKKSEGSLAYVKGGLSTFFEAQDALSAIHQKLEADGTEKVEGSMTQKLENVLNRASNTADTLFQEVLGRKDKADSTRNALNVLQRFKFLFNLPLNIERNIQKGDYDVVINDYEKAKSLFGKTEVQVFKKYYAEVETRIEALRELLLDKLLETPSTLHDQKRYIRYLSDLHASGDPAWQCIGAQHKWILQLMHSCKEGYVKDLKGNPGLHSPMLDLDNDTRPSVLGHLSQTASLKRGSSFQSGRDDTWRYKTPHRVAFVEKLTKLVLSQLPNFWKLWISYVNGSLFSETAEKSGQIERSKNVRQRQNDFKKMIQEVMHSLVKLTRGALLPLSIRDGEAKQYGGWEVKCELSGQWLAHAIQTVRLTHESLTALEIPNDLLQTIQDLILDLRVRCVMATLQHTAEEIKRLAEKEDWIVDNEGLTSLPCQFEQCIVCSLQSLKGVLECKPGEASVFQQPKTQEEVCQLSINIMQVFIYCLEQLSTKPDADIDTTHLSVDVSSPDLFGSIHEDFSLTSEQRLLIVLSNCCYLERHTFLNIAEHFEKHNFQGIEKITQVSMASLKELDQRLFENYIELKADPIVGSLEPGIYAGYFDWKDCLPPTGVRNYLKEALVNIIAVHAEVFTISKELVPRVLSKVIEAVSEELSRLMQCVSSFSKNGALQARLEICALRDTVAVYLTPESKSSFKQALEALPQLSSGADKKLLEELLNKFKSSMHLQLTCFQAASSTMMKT
T2 sequence (O60645 whole entry partner, the tested form may be a part): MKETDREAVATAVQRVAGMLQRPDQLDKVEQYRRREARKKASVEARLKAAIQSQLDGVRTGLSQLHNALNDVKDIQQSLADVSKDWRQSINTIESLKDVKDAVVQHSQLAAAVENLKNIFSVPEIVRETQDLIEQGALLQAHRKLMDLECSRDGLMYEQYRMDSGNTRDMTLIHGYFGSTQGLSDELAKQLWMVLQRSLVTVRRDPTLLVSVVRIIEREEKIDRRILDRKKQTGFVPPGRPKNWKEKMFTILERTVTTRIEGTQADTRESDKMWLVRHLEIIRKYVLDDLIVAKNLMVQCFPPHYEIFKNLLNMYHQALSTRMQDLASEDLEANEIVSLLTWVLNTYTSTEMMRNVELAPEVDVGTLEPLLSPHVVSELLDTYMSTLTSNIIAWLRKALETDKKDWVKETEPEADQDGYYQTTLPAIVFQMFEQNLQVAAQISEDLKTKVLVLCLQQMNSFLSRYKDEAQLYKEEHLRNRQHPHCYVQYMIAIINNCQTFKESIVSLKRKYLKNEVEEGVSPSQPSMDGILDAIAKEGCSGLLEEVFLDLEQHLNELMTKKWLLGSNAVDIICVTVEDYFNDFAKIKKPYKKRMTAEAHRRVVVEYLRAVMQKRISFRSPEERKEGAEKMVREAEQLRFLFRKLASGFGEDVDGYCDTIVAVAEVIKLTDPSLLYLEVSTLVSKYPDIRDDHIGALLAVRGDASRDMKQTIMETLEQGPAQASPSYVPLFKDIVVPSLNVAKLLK
T2 sequence (Q96A65 2-974 partner): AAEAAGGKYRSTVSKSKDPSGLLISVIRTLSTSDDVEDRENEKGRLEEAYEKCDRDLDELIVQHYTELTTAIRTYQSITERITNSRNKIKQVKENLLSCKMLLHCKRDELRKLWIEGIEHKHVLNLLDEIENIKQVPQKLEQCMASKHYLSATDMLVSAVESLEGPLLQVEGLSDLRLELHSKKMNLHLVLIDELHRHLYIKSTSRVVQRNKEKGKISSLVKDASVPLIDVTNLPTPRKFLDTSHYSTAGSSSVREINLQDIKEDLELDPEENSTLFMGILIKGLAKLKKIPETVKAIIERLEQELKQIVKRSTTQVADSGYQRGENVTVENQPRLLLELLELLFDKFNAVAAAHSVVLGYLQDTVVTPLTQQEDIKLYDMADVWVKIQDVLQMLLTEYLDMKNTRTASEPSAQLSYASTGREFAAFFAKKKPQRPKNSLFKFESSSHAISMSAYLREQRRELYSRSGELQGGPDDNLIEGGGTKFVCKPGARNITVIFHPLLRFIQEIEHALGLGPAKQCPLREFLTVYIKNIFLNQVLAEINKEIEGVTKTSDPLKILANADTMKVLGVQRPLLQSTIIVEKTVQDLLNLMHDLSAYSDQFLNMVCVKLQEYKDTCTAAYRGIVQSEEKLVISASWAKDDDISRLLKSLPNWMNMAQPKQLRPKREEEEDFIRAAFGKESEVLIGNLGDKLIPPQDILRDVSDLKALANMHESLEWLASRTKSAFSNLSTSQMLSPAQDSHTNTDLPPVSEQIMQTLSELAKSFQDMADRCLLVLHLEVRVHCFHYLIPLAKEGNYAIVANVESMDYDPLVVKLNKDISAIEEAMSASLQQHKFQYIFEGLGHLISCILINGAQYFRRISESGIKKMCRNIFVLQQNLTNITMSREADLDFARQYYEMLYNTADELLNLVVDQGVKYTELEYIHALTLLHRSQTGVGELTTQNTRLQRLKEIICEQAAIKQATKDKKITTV

With `CCCCCCCCCCCCCCCC(=O)OC[C@H](COP(=O)(O)O[C@@H]1[C@H](O)[C@H](O)[C@@H](OP(=O)(O)O)[C@H](OP(=O)(O)O)[C@H]1O)OC(=O)CCCCCCCCCCCCCCC` [PI(4,5)P2], the Kd at exocyst holocomplex amounted to 99.4 nM; in experiment [1] it was 36.1 nM; in experiment [2] it was 38.5 nM.
